According to US12569500B2, “Combination comprising tricycle compound and use thereof in preparation of medicament for treating HBV” (FUJIAN AKEYLINK BIOTECHNOLOGY CO., LTD., priority 2020, dated 2026):

System: HepG2.2.15 cells
Assay: CellTiter-Glo cytotoxicity of compound 1 / TDF combination
Type: cell-based
Experimental: 1.1 Day 1, HepG2.2.15 cells were seeded into a 96-well cell culture plate at a density of 40,000 cells/well, and then the cells were cultured overnight at 5% CO2 and 37° C.
1.2 Day 2, the compound 1 and TDF were combined with 7 different concentrations (selected about 8×, 4×, 2×, 1×, 0.5×, 0.25×, 0.125×EC50 concentration gradient) for orthogonal proportioning, and added to 96-well plate, each combination is 3 double plates, and the final concentration of DMSO is 0.5%.
1.3 Day 5, the cell supernatant was discarded, a fresh medium containing the compound was added, and the cells were cultured under 5% CO2, 37° C. for 3 days. On the 8th day, the supernatant from the cell plate treated with the compound was extracted according to the QIAamp 96 DNA Blood Kit (12) instruction.
MacSynegy software (Prichard et al., 1990) was used to process the HBV DNA copy number test data and analyze the effect parameters of compound 1 and TDF in combination. The CellTiter-Glo kit was used to detect the cytotoxicity of the compounds to HepG2.2.15 cells. According to the kit instructions, use a multifunctional microplate reader to detect the chemiluminescence intensity (RLU) of each cell well.

Cc1cc2n(c1)S(=O)(=O)c1ccc(C(=O)NCC[C@H]3COCCO3)cc1NC2=O [Compound 1]
average cell viability percentage (Compound 1 0.533 nM + TDF 0 nM): 121.5% | average cell viability percentage (Compound 1 1.065 nM + TDF 0 nM): 128.1% | average cell viability percentage (Compound 1 2.131 nM + TDF 0 nM): 124.5% | average cell viability percentage (Compound 1 4.261 nM + TDF 0 nM): 125.1% | average cell viability percentage (Compound 1 8.522 nM + TDF 0 nM): 124.3% | average cell viability percentage (Compound 1 17.04 nM + TDF 0 nM): 123.1% | average cell viability percentage (Compound 1 34.09 nM + TDF 0 nM): 115.2%
